Assay type in all cases: cell-based
For assay [1], the system named is mTORC1 over mTORC2. In words: mTORC1 over mTORC2 selectivity by comparing pS6K1 and pAKT IC50. Conditions: by comparing pS6K1 and pAKT IC50, 90 min. As to the method: Assay Protocol: • 1. Seed MCF-7 cells in Corning 3701 plate and incubate for 20˜24 hour. 12,000˜16,000 cells will be seeded in 36 μL medium per well. • 2. Change the culture medium with fresh medium and incubate for another 2 hours. • 3. Add 12 μL (4×) compounds into the cell plate by HAMILTON. Final DMSO concentration is 0.5%. Incubate for 90 minutes. • 4. Aspirate 38 μL by HAMILTON, 10 μL rest per well. • 5. Add 10 μL 2× lysis buffer using HAMILTON; total volume in wells is 20 μL. Allow cells to shake for 30 min. Cover plate by plastic foil and store plate at −80° C. up to analysis. • 6. Thaw cell lysate at RT and transfer 10 μL lysate to assay plate (Optiplate-384). • 7. Add 5 μL acceptor beads into assay plate and incubation for 2 hours • 8. Add 5 μL donor beads and incubation for 2 hours • 9. Count the plate by EnSpire Multimode Plate Reader […]
Compounds that are not selective by comparing pS6K1 and pAKT IC50 by kinase assays are indicated by “NO” in the “mTORC1 selective @ 90 min” column of Table 4. […] Compounds that are not selective at the 24 hrs mark are indicated by “NO” in the “mTORC1 selective @ 24 hrs” column of Table 4. “N/A” stands for “not assayed” and “N/C” stands for “not calculated”.

In assay [2] the test system is p-p70 S6 Kinase (Thr389) in MCF-7 cells. In words: AlphaLISA Ultra pS6K1 assay. Conditions: Homo sapiens, 1.5 h; MCF7 cells, 90 min. The procedure: Example 55: AlphaLISA Ultra pS6K1 Assay
Assay Protocol: • 1. Seed MCF-7 cells in Corning 3701 plate and incubate for 20˜24 hour. 12,000˜16,000 cells will be seeded in 36 μL medium per well. • 2. Change the culture medium with fresh medium and incubate for another 2 hours. • 3. Add 12 μL (4×) compounds into the cell plate by HAMILTON. Final DMSO concentration is 0.5%. Incubate for 90 minutes. • 4. Aspirate 38 μL by HAMILTON, 10 μL rest per well. • 5. Add 10 μL 2× lysis buffer using HAMILTON; total volume in wells is 20 μL. Allow cells to shake for 30 min. Cover plate by plastic foil and store plate at −80° C. up to analysis. • 6. Thaw cell lysate at RT and transfer 10 μL lysate to assay plate (Optiplate-384). • 7. Add 5 μL acceptor beads into assay plate and incubation for 2 hours • 8. Add 5 μL donor beads and incubation for 2 hours • 9. Count the plate by EnSpire Multimode Plate Reader
For orientation: Alpha assays give light when donor and acceptor beads are brought close together.

The test system of assay [3] is p-Akt 1/2/3 (Ser473) in MCF-7 cells. In words: AlphaLISA Ultra pAKT assay. Conditions: Homo sapiens, 1.5 h; MCF7 cells, 90 min. The procedure:
Example 56: AlphaLISA Ultra pAKT Assay
Assay Protocol: • 1. MCF-7 cells in Corning 3701 plate and incubate for 20˜24 hour. 16,000˜20,000 cells will be seeded in 36 μL medium per well. • 2. Change the culture medium with fresh medium and incubate for another 90 minutes. • 3. Add 12 μL (4×) compounds into the cell plate by HAMILTON. Final DMSO concentration is 0.5%. […] Aspirate 38 μL by HAMILTON, 10 μL rest per well. • 5. Add 10 μL 2× lysis buffer using HAMILTON; total volume in wells is 20 μL. Allow cells to shake for 30 min. Cover plate by plastic foil and store plate at −80° C. up to analysis. • 6. Thaw cell lysate at RT and transfer 10 μL lysate to assay plate (Optiplate-384). • 7. Add 5 μL acceptor beads into assay plate and incubation for 2 hours • 8. Add 5 μL donor beads and incubation for 2 hours • 9. Count the plate by EnSpire Multimode Plate Reader

A word on the IC50: it is the concentration that inhibits the measured activity by half. Lower therefore signals higher potency.

Each structure is given as a SMILES string.

In the case of `CO[C@@H]1C[C@H](C[C@@H](C)[C@@H]2CC(=O)[C@H](C)/C=C(\C)[C@@H](O)[C@@H](OC)C(=O)[C@H](C)C[C@H](C)/C=C/C=C/C=C(\C)[C@H](OCC3COCCO3)C[C@@H]3CC[C@@H](C)[C@@](O)(O3)C(=O)C(=O)N3CCCC[C@H]3C(=O)O2)CC[C@H]1OCCCO` (stereo partly drawn) [I-92, (24E,26E,28E,29E,35R,36S,37R,38R,40S,42S,44R,45S,47R,48R,57R)-44-(1,4-dioxan-2-ylmethoxy)-47,57-dihydroxy-45-[(1R)-2-[(1S,3R,4R)-4-(3-hydroxypropoxy)-3-methoxy-cyclohexyl]-1-methyl-ethyl]-48-methoxy-35,36,37,38,49,50-hexamethyl-69,70-dioxa-58-azatricyclohexatriaconta-24,26,28(49),29(50)-tetraene-51,52,53,54,55-pentone], the “mTORC1 selective @ 90 min” value in assay [1] is reported as “Yes”. For the same molecule, the IC50 in assay [2] was 10 to 100 nM; in assay [3] it was at least 1000 nM.
Molecule `CO[C@@H]1/C(C)=C/[C@@H](C)C(=O)C[C@@H]([C@H](C)C[C@@H]2CC[C@@H](OCCO)[C@H](OC)C2)OC(=O)[C@@H]2CCCCN2C(=O)C(=O)[C@]2(O)O[C@@H](CC[C@H]2C)CC(OCCOC2COC2)/C(C)=C/C=C/C=C/[C@@H](C)C[C@@H](C)C(=O)[C@@H]1OC` (stereo partly drawn) [I-87, (3S,6R,7E,9R,10R,12R,14S,15E,17E,19E,23S,26R,27R,34aS)-27-hydroxy-3-((R)-1-((1S,3R,4R)-4-(2-hydroxyethoxy)-3-methoxycyclohexyl)propan-2-yl)-9,10-dimethoxy-6,8,12,14,20,26-hexamethyl-21-(2-(oxetan-3-yloxy)ethoxy)-9,10,12,13,14,21,22,23,24,25,26,27,32,33,34,34a-hexadecahydro-3H-23,27-epoxypyrido[2,1-c][1]oxa[4]azacyclohentriacontine-1,5,11,28,29(4H,6H,31H)-pentaone] returned an IC50 in assay [3] of at least 1000 nM.
`COCCOCCO[C@@H]1C[C@@H]2CC[C@@H](C)[C@@](O)(O2)C(=O)C(=O)N2CCCC[C@H]2C(=O)O[C@H]([C@H](C)C[C@@H]2CC[C@@H](O)[C@H](OC)C2)CC(=O)[C@H](C)/C=C(\C)[C@@H](OC)[C@@H](OC)C(=O)[C@H](C)C[C@H](C)/C=C/C=C/C=C/1C` [I-48, (23E,25E,27E,28E,34R,35S,36R,37R,39S,41S,43R,44S,45R,46R,55R)-55-hydroxy-44-[(1R)-2-[(1S,3R,4R)-4-hydroxy-3-methoxy-cyclohexyl]-1-methyl-ethyl]-45,46-dimethoxy-43-[2-(2-methoxyethoxy)ethoxy]-34,35,36,37,47,48-hexamethyl-64,65-dioxa-56-azatricyclohexatriaconta-23,25,27(47),28(48)-tetraene-49,50,51,52,53-pentone]: in assay [1], the “mTORC1 selective @ 90 min” value is listed as “Yes”. The results for the IC50 in assay [2] and in assay [3] were 1 to 10 nM and at least 1000 nM, respectively.
Regarding `CO[C@@H]1C[C@H](C[C@@H](C)[C@@H]2CC(=O)[C@H](C)/C=C(\C)[C@@H](O)[C@@H](OC)C(=O)[C@H](C)C[C@H](C)/C=C/C=C/C=C(\C)C(OCC3COCCO3)C[C@@H]3CC[C@@H](C)[C@@](O)(O3)C(=O)C(=O)N3CCCC[C@H]3C(=O)O2)CC[C@H]1OC(F)F` (stereo partly drawn) [I-6, (24E,26E,28E,29E,32R,33S,34R,35R,37S,39S,42S,44R,45R,55R)-42-[(1R)-2-[(1S,3R,4R)-4-(difluoromethoxy)-3-methoxy-cyclohexyl]-1-methyl-ethyl]-41-(1,4-dioxan-2-ylmethoxy)-44,55-dihydroxy-45-methoxy-32,33,34,35,46,47-hexamethyl-66,67-dioxa-56-azatricyclohexatriaconta-24,26,28(46),29(47)-tetraene-48,49,50,51,52-pentone], the “mTORC1 selective @ 90 min” value in assay [1] is “Yes”. In addition, the IC50 in assay [2] is 10 to 100 nM; in assay [3] it was at least 1000 nM.
The matching figures for `CO[C@@H]1C[C@H](C[C@@H](C)[C@@H]2CC(=O)[C@H](C)/C=C(\C)[C@@H](O)[C@@H](OC)C(=O)[C@H](C)C[C@H](C)/C=C/C=C/C=C(\C)[C@@H](OCCOC3COC3)C[C@@H]3CC[C@@H](C)[C@@](O)(O3)C(=O)C(=O)N3CCCC[C@H]3C(=O)O2)CC[C@H]1OC(F)F` [I-105, (23E,25E,27E,28E,32R,33S,34R,35R,37S,39S,41S,42S,44R,45R,55R)-42-[(1R)-2-[(1S,3R,4R)-4-(difluoromethoxy)-3-methoxy-cyclohexyl]-1-methyl-ethyl]-44,55-dihydroxy-45-methoxy-32,33,34,35,46,47-hexamethyl-41-[2-(oxetan-3-yloxy)ethoxy]-65,66-dioxa-56-azatricyclohexatriaconta-23,25,27(46),28(47)-tetraene-48,49,50,51,52-pentone]: “Yes”, 1 to 10 nM and at least 1000 nM.
With `CO[C@@H]1/C(C)=C/[C@@H](C)C(=O)C[C@@H]([C@H](C)C[C@@H]2CC[C@@H](OP(C)(C)=O)[C@H](OC)C2)OC(=O)[C@@H]2CCCCN2C(=O)C(=O)[C@]2(O)O[C@@H](CC[C@H]2C)CC(OCC2COCCO2)/C(C)=C/C=C/C=C/[C@@H](C)C[C@@H](C)C(=O)[C@@H]1OC` (stereo partly drawn) [I-24, (1R,2R,4S)-4-((2R)-2-((3S,6R,7E,9R,10R,12R,14S,15E,17E,19E,23S,26R,27R,34aS)-21-((1,4-dioxan-2-yl)methoxy)-27-hydroxy-9,10-dimethoxy-6,8,12,14,20,26-hexamethyl-1,5,11,28,29-pentaoxo-1,4,5,6,9,10,11,12,13,14,21,22,23,24,25,26,27,28,29,31,32,33,34,34a-tetracosahydro-3H-23,27-epoxypyrido[2,1-c][1]oxa[4]azacyclohentriacontin-3-yl)propyl)-2-methoxycyclohexyl dimethylphosphinate], the IC50 in assay [3] is at least 1000 nM.
On to `CO[C@@H]1C[C@H](C[C@@H](C)[C@@H]2CC(=O)[C@H](C)/C=C(\C)[C@@H](O)[C@@H](OC)C(=O)[C@H](C)C[C@H](C)/C=C/C=C/C=C(\C)[C@H](OCCOC3COC3)C[C@@H]3CC[C@@H](C)[C@@](O)(O3)C(=O)C(=O)N3CCCC[C@H]3C(=O)O2)CC[C@H]1OC(=O)NCCN1CCOCC1` [I-20, [(42S,44R,46R)-4-[(2R)-2-[(27E,29E,31E,32E,38R,39S,40R,41R,43S,45S,47R,48S,50R,51R,61R)-50,61-dihydroxy-51-methoxy-38,39,40,41,52,53-hexamethyl-47-[2-(oxetan-3-yloxy)ethoxy]-54,55,56,57,58-pentaoxo-75,76-dioxa-64-azatricyclohexatriaconta-27,29,31(52),32(53)-tetraen-48-yl]propyl]-46-methoxy-44-cyclohexyl] N-(2-morpholinoethyl)carbamate], for which, in assay [1], the “mTORC1 selective @ 90 min” value is reported as “Yes”. Besides, the IC50 in assay [2] was 1 to 10 nM; in assay [3] it was at least 1000 nM.
The like results for `CO[C@@H]1C[C@H](C[C@@H](C)[C@@H]2CC(=O)[C@H](C)/C=C(\C)[C@@H](O)[C@@H](OC)C(=O)[C@H](C)C[C@H](C)/C=C/C=C/C=C(\C)[C@@H](OCC3COCCO3)C[C@@H]3CC[C@@H](C)[C@@](O)(O3)C(=O)C(=O)N3CCCC[C@H]3C(=O)O2)CC[C@H]1OCCCO` (stereo partly drawn) [I-93, (24E,26E,28E,29E,35R,36S,37R,38R,40S,42S,44S,45S,47R,48R,57R)-44-(1,4-dioxan-2-ylmethoxy)-47,57-dihydroxy-45-[(1R)-2-[(1S,3R,4R)-4-(3-hydroxypropoxy)-3-methoxy-cyclohexyl]-1-methyl-ethyl]-48-methoxy-35,36,37,38,49,50-hexamethyl-69,70-dioxa-58-azatricyclohexatriaconta-24,26,28(49),29(50)-tetraene-51,52,53,54,55-pentone] were, in that order, “Yes”, 1 to 10 nM and at least 1000 nM.

These data come from US20220267352A1, “RAPAMYCIN ANALOGS AND USES THEREOF” (Anakuria Therapeutics, Inc., priority 2021, published 2022).
